Measurements: patent EP3290412A1, “HIV-1 NUCLEOCAPSID INHIBITORS” (Università degli Studi di Siena, priority 2016, dated 2018)
Marks after values point to notes of the source that are not given here.

How the values were obtained:
HIV-DNA 2-LTR circles = experiment: Quantification of 2-LTR products in infected MT-2 cells (real time PCR); assay type: cell-based, HIV-1; settings: for 2-LTR/HIV-DNA ratio drug vs no-drug: NL4-3 M.O.I. 0.05, 24 hours, drug 28 1000 nM, 31 3000 nM, 23 5000 nM, Raltegravir 1000 nM
From the text: During the replication cycle of HIV, several forms of episomic HIV-DNA can be found in the nucleous as a result of abortive integration events in the genome of the cells. Unintegrated HIV-DNA forms such 2-LTR circles are considered as a marker of ongoing replication and can be easily detected and quantified through real time PCR systems. […] Therefore, the quantification of 2-LTR circles can be used as an indirect method to test the blockade of the integration step by a candidate or licensed integrase inhibitors (Reigadas S. et al, J. Antimicrob. Chemother. 2010; 65: 434-437).
Since NCp7 partecipates to several steps of HIV replication including integration, it was developed a cell based assay aimed at the quantification of 2-LTR circles in infected cells cultured in presence of inhibitory concentrations of candidate NCp7 inhibitors. In each culture 3x10^6 MT-2 cells were infected with HIV-1 reference strain NL4-3 at M.O.I. 0.05 in presence of investigational NCp7 inhibitors 23, 31, 28. A culture with the HIV-1 Integrase inhibitor Raltegravir™ was prepared as a reference for the inhibition of integration, while an infected culture without drugs (named "no-drug") was used to compare the amount of 2-LTR in the different cultures. Table 7 indicates the concentration of drugs used in each culture in comparison to the values of EC50 (calculated through the BiCycle Assay) and the values of TD50. Table 7. Concentration of drugs used [c] in comparison to the values of EC50 (calculated through the BiCycle Assay) and the values of TD50.
Cultures were incubated at 37°C and 5% CO2 for 24 hours, then cells were harvested and total DNA was extracted using the "MagCore® Genomic DNA Whole Blood Kit" automated system (Diatech).
Around 500 ng of extracted DNA were used in separated real time PCR reactions specific for the quantification of the total genomic and HIV-1 DNA, and the HIV-DNA 2-LTR circles, respectively. Both values were normalized as copies/10^6 cells according to β-globin gene quantification included in the first method. For each culture a ratio between 2-LTR/ total HIV-DNA circles was calculated and compared to the ratio obtained with the "no-drug" culture. Table 8. 2-LTR assay results

[1] = system: NIH Catalogue Number: 11845; settings: cited from earlier work
[2] = system: NIH Catalogue Number: 11842; settings: cited from earlier work
ARP clone 11808 (PI) = experiment: BiCycle assay, resistant viral strain; assay type: cell-based, HIV-1; settings: IC50 resistant strain / IC50 wild type NL4-3, BiCycle Assay
Procedure: (§1) BiCycle Assay is cell based assay allowing the evaluation of the antiviral activity of HIV-1 inhibitors on the whole replication cycle of HIV-1. The assay consists in a first round of infection of the T-cell line MT-2 followed by infection of TZM-bl cells. MT-2 cells were seeded at a concentration of 50,000 cells/well in a 96-well plate and infected with the HIV-1 reference strain NL4-3 in presence of five-fold dilutions of the investigational compounds. After 72 hours, 50 µl of supernatant from each well, containing the virus produced in the first round of infection, were used to infect TZM-bl cells seeded in a 96-plate well at a concentration of 30,000 cells/well. Two days later, cells were lysed adding 40 µl of Glo Lysis Buffer (Promega) to each well for 5 minutes, then 40 µl of Brighy-Glo Luciferase Reagent (Promega) were added to each well for relative luminescence units (RLU) counting using Glo-Max Multi Detection System (Promega). RLU values from each well were elaborated using the GraphPad v5.0 software to calculate the IC50 of each compound.
(§2) The antiviral activity of some of the compounds listed in Table 3 was further evaluated determining the IC50 with viruses carrying resistant mutations that reduce the susceptibility to drugs currently employed in clinical practice to treat HIV infection. The resistant viruses were obtained through the NIH AIDS Reagent Program (www.aidsreagent.org) and have been already characterized by the Phenosense Assay (Monogram Biosciences), considered as the reference assay for phenotypic investigation of HIV drug resistance due to its large application in clinical trials.
(§3) IC50 values of resistant viral strains were determined by using the BiCycle Assay as previously described. The results of the analysis are summarized in Table 6, where fold change values are calculated as the ratio between the IC50 values of resistant HIV-1 strains and the IC50 value of the wild type reference HIV-1 strain NL4-3. Table 6. Fold change values of resistant viral strains

ARP clone 11842 (INI) = experiment: BiCycle assay, resistant viral strain; assay type: cell-based, HIV-1; settings: IC50 resistant strain / IC50 wild type NL4-3, BiCycle Assay
Procedure: as §1, §2, §3

ARP clone 11845 (INI) = experiment: BiCycle assay, resistant viral strain; assay type: cell-based, HIV-1; settings: IC50 resistant strain / IC50 wild type NL4-3, BiCycle Assay
Procedure: as §1, §2, §3

ARP clone 12229 (NNRTI) = experiment: BiCycle assay, resistant viral strain; assay type: cell-based, HIV-1; settings: IC50 resistant strain / IC50 wild type NL4-3, BiCycle Assay
Procedure: as §1, §2, §3

ARP clone 12231 (NNRTI) = experiment: BiCycle assay, resistant viral strain; assay type: cell-based, HIV-1; settings: IC50 resistant strain / IC50 wild type NL4-3, BiCycle Assay
Procedure: as §1, §2, §3

ARP clone 12465 (PI) = experiment: BiCycle assay, resistant viral strain; assay type: cell-based, HIV-1; settings: IC50 resistant strain / IC50 wild type NL4-3, BiCycle Assay
Procedure: as §1, §2, §3

ARP clone 7400 (NRTI) = experiment: BiCycle assay, resistant viral strain; assay type: cell-based, HIV-1; settings: IC50 resistant strain / IC50 wild type NL4-3, BiCycle Assay
Procedure: as §1, §2, §3

ARP clone 7401 (NRTI) = experiment: BiCycle assay, resistant viral strain; assay type: cell-based, HIV-1; settings: IC50 resistant strain / IC50 wild type NL4-3, BiCycle Assay
Procedure: as §1, §2, §3

Compound	titer / amounts of 2-LTR circles compared with "no-drug" culture (HIV-DNA 2-LTR circles; NL4-3, 24 hours)	2-LTR/HIV-DNA ratio drug vs no-drug (HIV-DNA 2-LTR circles)	Level of resistance ([1]; INI resistant strain 11845)	Fold change ([1]; strain 11845, resistant virus IC50 to wild-type reference virus IC50 ratio, cut-off in brackets)	Level of resistance ([2]; INI resistant strain 11842)	Fold change ([2]; strain 11842, resistant virus IC50 to wild-type reference virus IC50 ratio, cut-off in brackets)	Fold change 11808 (PI) (ARP clone 11808 (PI))	Fold change 11842 (INI) (ARP clone 11842 (INI))	Fold change 11845 (INI) (ARP clone 11845 (INI))	Fold change 12229 (NNRTI) (ARP clone 12229 (NNRTI))	Fold change 12231 (NNRTI) (ARP clone 12231 (NNRTI))	Fold change 12465 (PI) (ARP clone 12465 (PI))	Fold change 7400 (NRTI) (ARP clone 7400 (NRTI))	Fold change 7401 (NRTI) (ARP clone 7401 (NRTI))
Cc1nnc(C(=O)NC(C)(C)c2nc(C(=O)NCc3ccc(F)cc3)c(O)c(=O)n2C)o1 [Raltegravir™, Raltegravir, reference compound]	three times higher	2.9	High resistance	>200 (1.5^b)	High resistance	96 (1.5^b)	–	–	–	–	–	–	–	–
COc1ccnc(-c2nc(O)c(O)c(C(=O)N[C@H](C)C3CCCCC3)n2)c1 [Compound 28, (R)-N-(1-cyclohexylethyl)-5,6-dihydroxy-2-(4-methoxypyridin-2-yl)pyrimidine-4-carboxamide]	–	1.3	–	–	–	–	1.4	2.9	2.3	0.1	2.8	3.7	0.8	0.8
C[C@@H](NC(=O)c1nc(-c2cc(Cl)ccn2)nc(O)c1O)C1CCCCC1 [Compound 26, (R)-2-(4-chloropyridin-2-yl)-N-(1-cyclohexylethyl)-5,6-dihydroxypyrimidine-4-carboxamide]	–	–	–	–	–	–	0.2	–	0.7	–	0.8	0.5	0.3	0.1
Cc1cccnc1-c1nc(O)c(O)c(C(=O)N[C@H](C)C2CCCCC2)n1 [Compound 23, (R)-N-(1-cyclohexylethyl)-5,6-dihydroxy-2-(3-methylpyridin-2-yl)pyrimidine-4-carboxamide]	–	0.5	–	–	–	–	5.1	8.6	1.2	1.0	2.8	2.3	0.7	1.4
O=C(NCC1CCCCC1)c1nc(-c2ccccn2)nc(O)c1O [Compound 1, N-(cyclohexylmethyl)-5,6-dihydroxy-2-(pyridin-2-yl)pyrimidine-4-carboxamide]	–	–	–	–	–	–	0.8	–	1.2	0.6	1.5	2.9	0.4	–
C[C@@H](NC(=O)c1nc(-c2nccc3ccccc23)nc(O)c1O)C1CCCCC1 [Compound 31, (R)-N-(1-cyclohexylethyl)-5,6-dihydroxy-2-(isoquinolin-1-yl)pyrimidine-4-carboxamide]	–	1.1	–	–	–	–	1.6	9.8	0.9	1.3	2.0	2.1	0.7	1.3
